This note sets out measurements from patent US11498896B2 (The Broad Institute, Inc., priority 2014, dated 2022).

For assay [1], the target named is T1, human D2R/β-arrestin (Homo sapiens (Human), UniProt P14416). Nature of the assay: β-arrestin agonist assay (PathHunter). Format: cell-based. The following applies: CHO-K1 cells expressing human D2R/β-arrestin; agonist mode. On the procedure:
The detection reagent (9.6 μL, Buffer:Emerald II:Galactor-Star in a 19:5:1 ratio, i.e., 14.06 mL:3.7 mL:0.74 mL=18.5 mL) was then added to the agonist plates.

In assay [2] the target is T1, human D2R/β-arrestin. Nature of the assay: Gi/cAMP agonist assay (Lance Ultra cAMP, forskolin). Format: cell-based. The following applies: CHO-K1 cells expressing human D2R/β-arrestin; agonist mode, 2.5 μM forskolin. On the procedure:
Eu-cAMP tracer solution (10 μl, PerkinElmer, 360 μl of Tracer in 17.64 ml kit buffer) and ULight-anti-cAMP solution (10 μl, 120 μL antibody in 17.88 ml kit buffer) was then added to each well.

The target in assay [3] is T1, human D2R/β-arrestin. The assay is described as follows: cell-based. The following applies: β-arrestin Antagonist.
Method: Cells were prepared for assays by growing cultures for up to 2 weeks (from about 6-20 passages). A vial of frozen cells was thawed in a water bath held at 37° C. The cells were then transferred into a 50 ml tube with 10 ml growth media. The vial was rinsed with growth media and the contents transferred to the 50 ml tube. The 50 ml tube was centrifuged at 1200 rpm for 5 minutes at room temperature. […] When the cells reached about 90% confluence (approximately 3 days between passages), the cells were passaged and used for either the agonist or antagonist assays as described below.
The cells were prepared for β-arrestin assays as described above. The assays were performed using a PathHunter® β-Arrestin Detecting Kit (DiscoveRX). The cells were grown on 225 mm dishes, then washed once with 1×PBS (Cellgro), followed by digestion with 2.5 ml 1× Detachment reagent (DRX 92-0009) for approximately 2 minutes.
For assay [4], the target named is T1, human D2R/β-arrestin. Nature of the assay: cell-based. The following applies: cAMP Antagonist.
Where [5] appears, read: CHO-K1 cells expressing human D2R/β-arrestin, antagonist mode, quinpirole 130 nM.
The mark [6] stands for this setting: CHO-K1 cells expressing human D2R/β-arrestin, antagonist mode, 2.5 μM forskolin and 2.7 nM quinpirole.

Some results are limits rather than exact numbers.

As usually defined, the EC50 is the midpoint of the concentration-response curve. Higher therefore signals lower potency in that assay. As a reminder, the IC50 is the concentration at which inhibition is half-maximal. A lower IC50 goes with higher potency.

T1 sequence (P14416 whole entry): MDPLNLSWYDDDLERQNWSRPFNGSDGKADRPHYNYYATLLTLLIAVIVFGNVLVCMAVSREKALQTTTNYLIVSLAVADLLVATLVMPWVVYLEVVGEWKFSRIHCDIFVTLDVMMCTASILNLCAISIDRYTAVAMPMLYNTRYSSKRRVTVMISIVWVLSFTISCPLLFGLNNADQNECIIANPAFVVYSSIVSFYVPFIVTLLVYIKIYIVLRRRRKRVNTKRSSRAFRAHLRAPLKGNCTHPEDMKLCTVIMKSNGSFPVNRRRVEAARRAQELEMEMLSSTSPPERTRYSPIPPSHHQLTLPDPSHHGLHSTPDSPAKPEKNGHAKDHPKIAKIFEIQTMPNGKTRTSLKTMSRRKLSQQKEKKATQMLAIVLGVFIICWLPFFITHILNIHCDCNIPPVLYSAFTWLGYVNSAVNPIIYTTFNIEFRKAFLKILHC

Take `CC1(Oc2ccc(Cl)cc2)CCN(CCOc2cn[nH]c2)CC1` [Compound 186, 1-(2-((1H-pyrazol-4-yl)oxy)ethyl)-4-(4-chlorophenoxy)-4-methylpiperidine]: the half-maximal effective concentration (EC50) on human D2R/β-arrestin [1] lay within 1 to 10 µM; on human D2R/β-arrestin [2], 0.1 to 1 µM. Besides, the IC50 lay within 1 to 10 µM against human D2R/β-arrestin [3] (setting [5]) and 0.1 to 1 µM against human D2R/β-arrestin [4] (setting [6]).

Take `CC(=O)c1cc(F)ccc1OCCN1CCC(C)(Oc2ccc(Cl)cc2)CC1` [Compound 187, 1-(2-(2-(4-(4-chlorophenoxy)-4-methylpiperidin-1-yl)ethoxy)-5-fluorophenyl)ethan-1-one]: the values for the EC50 at human D2R/β-arrestin [1] and on human D2R/β-arrestin [2] were more than 30 µM and 0.1 to 1 µM, respectively. The IC50 against human D2R/β-arrestin [3] (setting [5]) and at human D2R/β-arrestin [4] (setting [6]) was 1 to 10 µM in each case.

Turning to `COc1ccccc1OCCN1CCC(C)(Oc2ccc(Cl)cc2)CC1` [Compound 188, 4-(4-chlorophenoxy)-1-(2-(2-methoxyphenoxy)ethyl)-4-methylpiperidine], the EC50 is more than 30 µM on human D2R/β-arrestin [1] and 0.1 to 1 µM at human D2R/β-arrestin [2]. The results for the IC50 on human D2R/β-arrestin [3] (setting [5]) and on human D2R/β-arrestin [4] (setting [6]) were 0.1 to 1 µM and 1 to 10 µM, respectively.

As to `COc1cc(F)c(F)cc1OCCN1CCC(C)(Oc2ccc(Cl)cc2)CC1` [Compound 189, 4-(4-chlorophenoxy)-1-(2-(4,5-difluoro-2-methoxyphenoxy)ethyl)-4-methylpiperidine], the results for the EC50 at human D2R/β-arrestin [1] and at human D2R/β-arrestin [2] were more than 30 µM and 1 to 10 µM, respectively. Also, the IC50 at human D2R/β-arrestin [3] (setting [5]) and against human D2R/β-arrestin [4] (setting [6]) was 1 to 10 µM each time.

As to `CC(C)Oc1ccc(F)cc1OCCN1CCC(C)(Oc2ccc(Cl)cc2)CC1` [Compound 190, 4-(4-chlorophenoxy)-1-(2-(5-fluoro-2-isopropoxyphenoxy)ethyl)-4-methylpiperidine], the EC50 at human D2R/β-arrestin [1] is more than 30 µM; at human D2R/β-arrestin [2], 0.1 to 1 µM. Moreover, the IC50 at human D2R/β-arrestin [3] (setting [5]) was 1 to 10 µM; at human D2R/β-arrestin [4] (setting [6]) it was 0.1 to 1 µM.

On to `CC(C)Oc1cc(F)ccc1OCCN1CCC(C)(Oc2ccc(Cl)cc2)CC1` [Compound 191, 4-(4-chlorophenoxy)-1-(2-(4-fluoro-2-isopropoxyphenoxy)ethyl)-4-methylpiperidine], for which the EC50 at human D2R/β-arrestin [1] and at human D2R/β-arrestin [2] was more than 30 µM each time. For the same compound, the values for the half-maximal inhibitory concentration (IC50) against human D2R/β-arrestin [3] (setting [5]) and at human D2R/β-arrestin [4] (setting [6]) were 1 to 10 µM and 0.1 to 1 µM, respectively.

Regarding `CC(C)C1(Oc2ccc(Cl)cc2)CCN(CCOc2ccccc2C(F)(F)F)CC1` [Compound 192, 4-(4-chlorophenoxy)-4-isopropyl-1-(2-(2-(trifluoromethyl)phenoxy)ethyl)piperidine], the EC50 was more than 30 µM at human D2R/β-arrestin [1] and 1 to 10 µM at human D2R/β-arrestin [2]. Further, the values for the IC50 against human D2R/β-arrestin [3] (setting [5]) and against human D2R/β-arrestin [4] (setting [6]) were 1 to 10 µM and 0.1 to 1 µM, respectively.

Turning to `C#CC1(Oc2ccc(Cl)cc2)CCN(CCOc2ccccc2C(F)(F)F)CC1` [Compound 193, 4-(4-chlorophenoxy)-4-ethynyl-1-(2-(2-(trifluoromethyl)phenoxy)ethyl)piperidine], the EC50 on human D2R/β-arrestin [1] was 1 to 10 µM; at human D2R/β-arrestin [2] it was less than 0.1 µM. Further, the IC50 at human D2R/β-arrestin [3] (setting [5]) was 1 to 10 µM; against human D2R/β-arrestin [4] (setting [6]), more than 30 µM.

As for `C#CC1(Oc2ccccc2)CCN(CCOc2ccccc2C(F)(F)F)CC1` [Compound 194, 4-ethynyl-4-phenoxy-1-(2-(2-(trifluoromethyl)phenoxy)ethyl)piperidine], the concentration for a half-maximal effect (EC50) on human D2R/β-arrestin [1] is 0.1 to 1 µM; on human D2R/β-arrestin [2], less than 0.1 µM. The IC50 against human D2R/β-arrestin [3] (setting [5]) is 1 to 10 µM; at human D2R/β-arrestin [4] (setting [6]), more than 30 µM.

Take `CC1(Oc2ccc(Cl)cc2)CCN(CCn2cccc(C(F)(F)F)c2=O)CC1` [Compound 195, 1-(2-(4-(4-chlorophenoxy)-4-methylpiperidin-1-yl)ethyl)-3-(trifluoromethyl)pyridin-2(1H)-one]: the 50% effective concentration (EC50) at human D2R/β-arrestin [1] and on human D2R/β-arrestin [2] was more than 30 µM throughout. For the same compound, the IC50 at human D2R/β-arrestin [3] (setting [5]) and on human D2R/β-arrestin [4] (setting [6]) was more than 30 µM in each case.

Regarding `C[C@@]1(O)C[C@H]2CC[C@@H](C1)N2CCOc1ccccc1C(F)(F)F` [Compound 196, (1R,3s,5S)-3-methyl-8-(2-(2-(trifluoromethyl)phenoxy)ethyl)-8-azabicyclo[3.2.1]octan-3-ol], the EC50 at human D2R/β-arrestin [1] and on human D2R/β-arrestin [2] was more than 30 µM in each case. The results for the half-maximal inhibitory concentration (IC50) at human D2R/β-arrestin [3] (setting [5]) and against human D2R/β-arrestin [4] (setting [6]) were 10 to 30 µM and 1 to 10 µM, respectively.

For the compound `CNC(=O)C1(C)CCN(CCOc2ccccc2C(F)(F)F)CC1` [Compound 198, N,4-dimethyl-1-(2-(2-(trifluoromethyl)phenoxy)ethyl)piperidine-4-carboxamide], the EC50 on human D2R/β-arrestin [1] and on human D2R/β-arrestin [2] was more than 30 µM each time. Further, the half-inhibitory concentration (IC50) at human D2R/β-arrestin [3] (setting [5]) and at human D2R/β-arrestin [4] (setting [6]) was less than 0.1 µM throughout.

With `CNC(=O)C1(C)CCN(CCOc2ccccc2)CC1` [Compound 199, N, 4-dimethyl-1-(2-phenoxyethyl)piperidine-4-carboxamide], the EC50 at human D2R/β-arrestin [1] is more than 30 µM; on human D2R/β-arrestin [2] it was 0.1 to 1 µM. Also, the IC50 at human D2R/β-arrestin [3] (setting [5]) is 1 to 10 µM; on human D2R/β-arrestin [4] (setting [6]), more than 30 µM.

Regarding `CNC(=O)C1(C)CCN(CCOc2ccccc2F)CC1` [Compound 200, 1-(2-(2-fluorophenoxy)ethyl)-N,4-dimethylpiperidine-4-carboxamide], the EC50 at human D2R/β-arrestin [1] is more than 30 µM; at human D2R/β-arrestin [2] it was 0.1 to 1 µM. Further, the values for the IC50 against human D2R/β-arrestin [3] (setting [5]) and against human D2R/β-arrestin [4] (setting [6]) were 1 to 10 µM and 0.1 to 1 µM, respectively.

Take `CNC(=O)C1(C)CCN(CCOc2ccccc2OC)CC1` [Compound 201, 1-(2-(2-methoxyphenoxy)ethyl)-N,4-dimethylpiperidine-4-carboxamide]: the EC50 on human D2R/β-arrestin [1] and at human D2R/β-arrestin [2] was more than 30 µM in each case. Moreover, the figures for the IC50 against human D2R/β-arrestin [3] (setting [5]) and against human D2R/β-arrestin [4] (setting [6]) were 1 to 10 µM and 0.1 to 1 µM, respectively.

For the compound `CNC(=O)C1(C)CCN(CC2COc3ccccc3O2)CC1` (stereo not shown) [Compound 202, 1-((2,3-dihydrobenzo[b][1,4]dioxin-2-yl)methyl)-N,4-dimethylpiperidine-4-carboxamide], the values for the EC50 on human D2R/β-arrestin [1] and on human D2R/β-arrestin [2] were more than 30 µM and less than 0.1 µM, respectively. In addition, the IC50 at human D2R/β-arrestin [3] (setting [5]) and at human D2R/β-arrestin [4] (setting [6]) was 0.1 to 1 µM in each case.

Take `CC1(C(=O)NC2CC2)CCN(CC2COc3ccccc3O2)CC1` (stereo not shown) [Compound 203, N-cyclopropyl-1-((2,3-dihydrobenzo[b][1,4]dioxin-2-yl)methyl)-4-methylpiperidine-4-carboxamide]: the EC50 is more than 30 µM at human D2R/β-arrestin [1] and less than 0.1 µM on human D2R/β-arrestin [2]. Further, the values for the half-maximal inhibitory concentration (IC50) against human D2R/β-arrestin [3] (setting [5]) and against human D2R/β-arrestin [4] (setting [6]) were 0.1 to 1 µM and 1 to 10 µM, respectively.

Turning to `CC1(C(=O)Nc2ccccc2)CCN(CC2COc3ccccc3O2)CC1` (stereo not shown) [Compound 204, 1-((2,3-dihydrobenzo[b][1,4]dioxin-2-yl)methyl)-4-methyl-N-phenylpiperidine-4-carboxamide], the EC50 on human D2R/β-arrestin [1] was more than 30 µM; on human D2R/β-arrestin [2], 0.1 to 1 µM. Further, the half-maximal inhibitory concentration (IC50) against human D2R/β-arrestin [3] (setting [5]) was in the range of 1 to 10 µM; at human D2R/β-arrestin [4] (setting [6]), 0.1 to 1 µM.

For `CNCC1(C)CCN(C[C@H]2COc3ccccc3O2)CC1` [Compound 207, (S)-1-(1-((2,3-dihydrobenzo[b][1,4]dioxin-2-yl)methyl)-4-methylpiperidin-4-yl)-N-methylmethanamine], the EC50 on human D2R/β-arrestin [1] and on human D2R/β-arrestin [2] was 1 to 10 µM in each case. Moreover, the IC50 is 1 to 10 µM against human D2R/β-arrestin [3] (setting [5]) and more than 30 µM on human D2R/β-arrestin [4] (setting [6]).

As to `CC1(NC(=O)C(F)(F)F)CCN(C[C@H]2COc3ccccc3O2)CC1` [Compound 212, (S)—N-(1-((2,3-dihydrobenzo[b][1,4]dioxin-2-yl)methyl)-4-methylpiperidin-4-yl)-2,2,2-trifluoroacetamide], the EC50 was 1 to 10 µM at human D2R/β-arrestin [1] and less than 0.1 µM on human D2R/β-arrestin [2]. In addition, the IC50 against human D2R/β-arrestin [3] (setting [5]) was 0.1 to 1 µM; on human D2R/β-arrestin [4] (setting [6]), more than 30 µM.

As for `CC(=O)N(C)C1(C)CCN(C[C@H]2COc3ccccc3O2)CC1` [Compound 213, (S)—N-(1-((2,3-dihydrobenzo[b][1,4]dioxin-2-yl)methyl)-4-methylpiperidin-4-yl)-N-methylacetamide], the values for the EC50 at human D2R/β-arrestin [1] and on human D2R/β-arrestin [2] were more than 30 µM and 1 to 10 µM, respectively. The IC50 against human D2R/β-arrestin [3] (setting [5]) and against human D2R/β-arrestin [4] (setting [6]) was more than 30 µM throughout.

`OCC1(Cc2ccc(Cl)cc2)CCN(CCOc2ccccc2C(F)(F)F)CC1` [Compound 214, (4-(4-chlorobenzyl)-1-(2-(2-(trifluoromethyl)phenoxy)ethyl)piperidin-4-yl)methanol]: the figures for the EC50 on human D2R/β-arrestin [1] and at human D2R/β-arrestin [2] were more than 30 µM and 1 to 10 µM, respectively. Further, the IC50 at human D2R/β-arrestin [3] (setting [5]) and against human D2R/β-arrestin [4] (setting [6]) was 1 to 10 µM throughout.

For the compound `CC1(Cc2ccc(Cl)cc2)CCN(CCOc2ccccc2C(F)(F)F)CC1` [Compound 215, 4-(4-chlorobenzyl)-4-methyl-1-(2-(2-(trifluoromethyl)phenoxy)ethyl)piperidine], the EC50 on human D2R/β-arrestin [1] and at human D2R/β-arrestin [2] was 1 to 10 µM in each case. Further, the IC50 on human D2R/β-arrestin [3] (setting [5]) was 1 to 10 µM; against human D2R/β-arrestin [4] (setting [6]), 10 to 30 µM.

Turning to `FC(F)(F)c1ccccc1OCCN1CCC2(CC1)CC2c1ccc(Cl)cc1` (stereo not shown) [Compound 216, 1-(4-chlorophenyl)-6-(2-(2-(trifluoromethyl)phenoxy)ethyl)-6-azaspiro[2.5]octane], the EC50 on human D2R/β-arrestin [1] and at human D2R/β-arrestin [2] was more than 30 µM throughout. In addition, the IC50 is 10 to 30 µM at human D2R/β-arrestin [3] (setting [5]) and more than 30 µM on human D2R/β-arrestin [4] (setting [6]).

Turning to `CN(C1CCCCC1)C1(C)CCN(CCOc2ccccc2C(F)(F)F)CC1` [Compound 217, N-cyclohexyl-N,4-dimethyl-1-(2-(2-(trifluoromethyl)phenoxy)ethyl)piperidin-4-amine], the results for the EC50 at human D2R/β-arrestin [1] and on human D2R/β-arrestin [2] were more than 30 µM and 0.1 to 1 µM, respectively. The IC50 against human D2R/β-arrestin [3] and at human D2R/β-arrestin [4] was 1 to 10 µM throughout.
